Test system: endometriosis model rats
Test: Therapeutic effect in endometriosis model rats (autotransplanted uterine tissue on peritoneum), histology of lesion
Type: in vivo, Sprague-Dawley rats (female)
Conditions: oral, lesion excised seven days after preparation; for invasion of mast cells in lesion sample: light and electron microscopy; for degree of interstitial proliferative lesion: versus control group
Protocol: Endometriosis model rats were prepared by the method described in Michael W. Vernon et al., FERTILITY AND STERILITY, Vol. 44, No. 5, Nov. 1985. That is, endometriosis model rats were prepared as follows: Sprague-Dawley rats (female) of 8 weeks old were acclimatized for 2 weeks under 12 hours light-dark condition. From each rat, right uterine horn was excised under general anesthesia with sevoflurane and ketamine hydrochloride, and a tissue piece sizing 5 mm×5 mm was prepared therefrom. The tissue piece was subjected to autotransplantation such that the endometrium surface is attached to peritoneum.
From 24 hours after the preparation of the endometriosis model rats, commercially available clarithromycin tablets (trademark “Clarith Tablet 50 for Children” prepared by Taisho Pharmaceutical Co., Ltd) were orally administered to the rats for 3 days. […] Clarithromycin was not administered to control animals. Seven days after the preparation of the model rats, at which the model lesion reached its peak, the peritoneum tissue including the graft up to the abdominal muscle was excised to obtain a lesion sample. From the thus obtained samples, light microscope specimens (hematoxylin-eosin staining, toluidine blue staining) and electron microscope specimens (uranium-lead double staining) were prepared, and the existence of invaded mast cells, which is a symptom of endometriosis, and the degree of interstitial proliferative lesion were observed.

[1] = 10 mg/kg per day for 3 days from 24 hours after model preparation
[2] = 6 mg/kg per day for 3 days from 24 hours after model preparation

Row | Compound | invasion of mast cells in lesion sample [1] | degree of interstitial proliferative lesion [1] | invasion of mast cells in lesion sample [2] | degree of interstitial proliferative lesion [2]
1 | CC[C@H]1OC(=O)[C@H](C)[C@@H](O[C@H]2C[C@@](C)(OC)[C@@H](O)[C@H](C)O2)[C@H](C)[C@@H](O[C@@H]2O[C@H](C)C[C@H](N(C)C)[C@H]2O)[C@](C)(O)C[C@@H](C)CN(C)[C@H](C)[C@@H](O)[C@]1(C)O [azithromycin] | not observed | apparently reduced |  | 
2 | CC[C@H]1OC(=O)[C@H](C)[C@@H](O[C@H]2C[C@@](C)(OC)[C@@H](O)[C@H](C)O2)[C@H](C)[C@@H](O[C@@H]2O[C@H](C)C[C@H](N(C)C)[C@H]2O)[C@](C)(OC)C[C@@H](C)C(=O)[C@H](C)[C@@H](O)[C@]1(C)O [clarithromycin] | not observed | apparently reduced |  | 
3 | CC[C@H]1OC(=O)[C@H](C)[C@@H](O[C@H]2C[C@@](C)(OC)[C@@H](O)[C@H](C)O2)[C@H](C)[C@@H](O[C@@H]2O[C@H](C)C[C@H](N(C)C)[C@H]2O)[C@](C)(O)C[C@@H](C)/C(=N\OCOCCOC)[C@H](C)[C@@H](O)[C@]1(C)O [roxithromycin] |  |  | not observed | apparently reduced

Reference: US7119076B2, “Preventives or remedies for endometriosis or uterine myoma” (priority 2000, dated 2006)
